# Values joined by “and” are separate entries in the source; they are usually repeats but may differ in a detail not shown here. Identical values can stand only once. Counter-ions that a name gives are not always drawn.
# How the values were obtained:
# E. coli strain UZ_TEM104 = test: microbe, parasite or virus in culture; type: cell-based, Escherichia coli
# [1] = system: uro-pathogenic E. coli strain (UPEC strain blaTEM-1); test: MIC of ampicillin with or without 32 µg/mL TEM3.2 or tazobactam; type: cell-based, Escherichia coli; details: 32 μg/mL of either TEM3.2 or tazobactam
# Procedure: (§1) We also performed a tolerability study using a dose escalation method by administering the peptide at 2, 5, 10, 15, and 20 mg/kg via different parenteral routes: intravenous (IV), intraperitoneal (IP), and subcutaneous (SC) in female C57BL/6JAX mice, aged 8–10 weeks (Suppl Table 4). […] Vehicle alone (0.9% NaCl) was also administered (IV). After 24 h the animals were sacrificed and the bacterial load in the bladder, kidney, and ureter was quantified by determining the number of colony-forming units (CFU) per mL of tissue extract (Fig. 7E–G).
# Determination of MIC values was performed using the broth microdilution method according to the EUCAST guideline, which was performed in 96-well polystyrene flat-bottom microtiter plates (BD Biosciences). Briefly, a single colony was inoculated into 5 mL Difco™ Mueller–Hinton Broth (BD Biosciences Ref 275730) and grown to the end-exponential growth phase in a shaking incubator at 37 °C. Cultures were subsequently diluted to a MacFarland (0.5 optical density) to reach 10^6 CFU/mL in fresh MHB medium. 50 µl of different concentrations of peptides ranging from 128 to 2 µg/mL were serially diluted to the sterile 96-well plate in MHB. 50 µL of the diluted bacteria in MHB were next pipetted into 96-well plates to reach the final volume of 100 µL. The bacteria grown with the maximum concentration of carrier and medium were considered positive and negative controls, respectively. The plates were statically incubated overnight at 37 °C to allow bacterial growth. OD was measured at 590 nm using a multipurpose ultraviolet–visible plate reader, and the absorbance of the bacterial growth was measured using an absorbance reader.
# SHV-11 = biological target: T1, SHV-11 (Klebsiella pneumoniae, UniProt P0AD64, L31Q); test: Thermal denaturation, Right-Angle Light Scattering (aggregation); type: biochemical; details: excess of tazobactam; less marked than for TEM-1
# T1 construct: His-tag (N); TEV cleavage site (N); made in house; host or cells: E. coli BL21 (DE3)
# TEM-1 [2] = biological target: T2, TEM-1 (Escherichia coli, UniProt P62593); type: biochemical
# Excerpt: To satisfy the reviewer’s comment, we have performed urea denaturation in the presence
# of a molar excess of tazobactam and compared it to the condition without.
# two-state denaturation of the protein with a stable intermediate. The difference between
# The plots show a single repeat.
# Table 1: Results from fitting 3 replicates
# G1 (kcal/mol) G2 (kcal/mol) Sum
# [3] = system: uro-pathogenic E. coli strain (UPEC strain blaTEM-1); test: Urinary tract infection model, bacterial load in bladder, kidney, ureter; type: in vivo, female C57BL/6JAX mice; design: bacterial load, Ureters / bacterial load, Bladder / bacterial load, Kindey: unit: CFU per mL of tissue extract
# Procedure: Fig. 7 Evaluation of in vivo use of peptides that induce the aggregation of TEM beta-lactamase. A Lysis of human erythrocytes (hemolysis) was assessed in the presence of the indicated concentrations of TEM3.2 for 2 h at 37 °C, and normalized to the value obtained with 1% of the detergent triton. […] B Cell viability using the CellTiter Blue assay of HeLa cells treated for 24 h with the indicated concentrations TEM 3.2 at 37 °C. […] DAPI (4’,6-diamidino-2-phenylindole) is blue, while CellMask is red. D Experimental workflow of the in vivo model used in this study. E–G Bacterial load of indicated organs of female C57BL/6JAX mice with a urinary tract infection with E. coli strain UZ_TEM104, treated with 30 mg/kg penicillin (oral) as well 10 mg/kg tazobactam (oral) or 10 mg/kg TEM3.2 via the indicated treatment route. IV intravenous, IP intraperitoneal, SC subcutaneously. The data shown is from a single experiment with 12 animals for each group. The result for each animal is shown as a dot. […] The statistically significant differences were determined using ANOVA, followed by Dunnett’s multiple comparison test. […] Source data are provided as a Source Data file.
# as §1
# To test the efficacy of the peptides, a urinary tract infection model was performed as described previously. Briefly, female C57BL/6Jax mice female mice were deprived of water for at least 1 h. Then, they were anesthetized by IP administration of the mixture of ketamine (Nimatek)/xylazine (XYL-M 2% BE-V170581). The bladder of the mouse was massaged with fingers and pushed down gently to expel the remaining urine. Mice were slowly inoculated urethrally with 50 µL of a bacterial suspension slowly over 5 s to avoid vesicoureteral reflux (10^8 CFU/ mouse) using a sterile catheter (pediatric intravenous-access cannula (GS391350)). The catheter was removed directly after inoculation. After surgery, the animals were visually monitored for full recovery. After 1 h post inoculation, all mice received Ampicillin (30 mg/kg_PO-orally) and at the same time 3 groups of animals received the peptides via different administration routes (10 mg/kg_IV—intravenous; IP—intraperitoneal or SC—sub-cutaneous) and the positive control groups received tazobactam (10 mg/kg, PO). The negative control groups received vehicle or saline (IV administration). 2 h post inoculation, all mice received a second injection with the same concentration of each treatment as explained above. Twenty-four hours post-infection, mice were sacrificed and organs (kidney, bladder, ureter) were washed with PBS and were homogenized (Thermo Savant FastPrep FP120 Homogenizer/24 s). The homogenized tissues were serially diluted and cultured on blood agar plates. The plates were incubated overnight at 37 °C, and the number of bacteria was measured by CFU value.
# TEM-1 [4] = biological target: T2, TEM-1; type: biochemical, E. coli; design: His-tag (N); TEV cleavage site (N); made in house; host or cells: E. coli BL21 (DE3)
# Excerpt: Then, we performed a thermal denaturation whilst simultaneously monitoring the intrinsic fluorescence as a measure of the folding status of the molecule (Fig. 1D and Supplementary Fig. 2D) and the static light scattering as a measure of aggregation (Fig. 1E and Supplementary Fig. 2E).
# D Heat denaturation of TEM-1 monitored by intrinsic fluorescence plotted as the BaryCentric Mean (BCM) of the fluorescence emission spectrum in the presence (red) and absence (blue) of tazobactam. […] E Temperature-dependent evolution of the Right-Angle Light Scattering (RALS) intensity measured simultaneously with the data in D to monitor protein aggregation. […] F Same data as in E, but showing a dose-titration of the beta-lactamase inhibitor tazobactam.
# [5] = group Tazo, each column one mouse
# T2 sequence (P62593 24-286 limits assumed): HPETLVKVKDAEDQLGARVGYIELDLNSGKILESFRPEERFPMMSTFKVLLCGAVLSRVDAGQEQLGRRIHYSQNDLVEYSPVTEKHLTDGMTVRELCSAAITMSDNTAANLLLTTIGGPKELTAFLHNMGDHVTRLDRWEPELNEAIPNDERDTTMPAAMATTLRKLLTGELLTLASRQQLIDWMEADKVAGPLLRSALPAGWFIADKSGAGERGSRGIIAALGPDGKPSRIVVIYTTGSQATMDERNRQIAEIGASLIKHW
# T1 sequence (P0AD64 22-286 L31Q): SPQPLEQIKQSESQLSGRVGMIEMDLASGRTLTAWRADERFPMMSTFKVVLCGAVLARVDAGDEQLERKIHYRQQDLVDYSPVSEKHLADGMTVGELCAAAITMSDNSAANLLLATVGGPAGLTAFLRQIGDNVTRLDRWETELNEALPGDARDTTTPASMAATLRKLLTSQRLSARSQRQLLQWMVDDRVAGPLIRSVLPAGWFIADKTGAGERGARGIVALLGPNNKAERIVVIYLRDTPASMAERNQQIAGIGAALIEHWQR
smiles,measurement,setting,value
"C[C@]1(Cn2ccnn2)[C@H](C(=O)O)N2C(=O)C[C@H]2S1(=O)=O [Tazobactam, tazobactam sodium salt]",MIC penicillin,"E. coli strain UZ_TEM104; E. coli UZ_TEM104, concentration of additive 50 (mg/mL [sic])",400000 µg/mL
same,fold reduction of the MIC of penicillin G,E. coli strain UZ_TEM104; additive at 50 μg/mL,4 fold
same,MIC penicillin,E. coli strain UZ_TEM104; in the presence of additive (peptide or tazobactam) at fixed 50 μg/mL,400 µg/mL
same,MIC Ampicillin in the presence of additive,[1],25 µg/mL
same,effect on aggregation of SHV-11 during thermal denaturation (in words),SHV-11,a decrease in the aggregation of the protein
same,Sum,"TEM-1 [2]; G1 + G2, with molar excess of tazobactam (no tazo 10.40)",10.28 kcal/mol
same,G2,"TEM-1 [2]; urea denaturation of TEM-1 with molar excess of tazobactam, 3-state fit, 3 replicates (no tazo 5.00)",4.03 kcal/mol
same,G1,"TEM-1 [2]; urea denaturation of TEM-1 with molar excess of tazobactam, 3-state fit, 3 replicates (no tazo 5.40)",6.25 kcal/mol
same,best reduction of the bacterial load,"[3]; 10 mg/kg plus 30 mg/kg Ampicillin orally at 60 and 120 min post-infection, CFU at 24 h, most robust in kidney and ureter",1.8 log folds
same,"bacterial load, Bladder",[3]; [5],26566.7 and 152667 and 97400 and 1 and 3700 and 1433.33 and 3000 and 1800 and 1966.67 and 316733 and 4266.67 and 3266.67
same,"bacterial load, Kindey",[3]; [5],24000 and 134000 and 72733.3 and 633.333 and 1 (3×) and 10200 and 2066.67 and 17700 and 9833.33 and 4600
same,"bacterial load, Ureters",[3]; [5],2433.33 and 54400 and 33133.3 and 133.333 and 166.667 and 1 (2×) and 1000 and 800 and 11633.3 and 1900 and 1166.67
same,effect on aggregation of TEM-1 during thermal denaturation (in words),"TEM-1 [4]; excess of tazobactam, more marked for TEM-1 than SHV-11",a decrease in the aggregation of the protein
same,"effect on aggregation of TEM-1, dose-response (in words)","TEM-1 [4]; static light scattering during temperature ramp, inhibitor titration",reduce the aggregation of the enzyme in a dose-responsive manner
